{"source": "patent US20180065940A1", "about": "“METAL-BINDING COMPOUNDS, HETEROLOGOUS PRODUCTION AND USES THEREOF” (The Research Foundation for The State University of New York, priority 2015, published 2018)", "key": {"[1]": {"experiment": "Copper removal experiments with Ybt-modified XAD beads (Zincon assay)", "conditions": "fresh beads in three successive applications", "description": "(§1) Copper Removal Experiments. Copper and zinc removal assessment was completed using the Zincon assay (Sabel et al. 2010. Anal Biochem 397:218-226). Briefly, 40 μL samples (diluted if necessary to keep concentrations less than 4 ppm) were added to 200 μL of borate buffer (65.8 mM; pH=9), and the assay was initiated by adding 10 μL of Zincon solution (1.6 mM). After a five-minute incubation at 20° C., absorbance at 610 nm was measured. Standard curves for Zn and Cu were made using pure salts (Sigma-Aldrich) to allow quantification. The initial measurement provides total metal concentration (zinc and copper together) while the second measurement allows determination of the copper concentration. By subtracting the second reading from the first, zinc concentration is determined. […]\n(§2) To test copper removal, 800 μL of copper solution was added to 40 mg of Ybt-modified XAD beads (or controls) and incubated at 30° C. with shaking (for sheep blood and 50% FBS RPMI samples, this temperature was 22° C.). […] The copper content of the original mixture solution and the liquid resulting from the bead washing steps was measured using the Zincon assay described above. […] The removal ability was calculated using the following equation: […]"}, "[2]": {"test_system": "red blood cell (RBC) membranes", "conditions": "0.03 mg/mL Ybt or 50 mg/mL Ybt-XAD beads in PBS, 37° C."}, "[3]": {"conditions": "pH 2 (10 mM HCl)", "description": "Based upon the pH removal profiles for Ybt-XAD, the column was tested for regeneration (FIG. 27). […] To select the degree of pH reduction, the Ybt compound was tested for degradation over log-fold differences in HCl concentrations (FIG. 31)."}, "RAW264.7 cells": {"test_system": "RAW264.7 cells", "description": "Biological Interaction Assays. Cytotoxicity resulting from Ybt samples was determined by the 3-(4, 5-dimethylthiazol-2-yl)-diphenyltetrazolium bromide (MTT) colorimetric assay. Three distinct cell lines (RAW264.7 [macrophage; provided by Dr. Terry Connell, Department of Microbiology and Immunology, University at Buffalo], HeLa [epithelial; provided by Dr. Stelios Andreadis, Department of Chemical and Biological Engineering, University of Buffalo], and NIH3T3 [fibroblast; ATCC]) were cultured in T75 flasks at 37° C./5% CO2. RAW264.7 cells were maintained in medium prepared as follows: 50 mL of FBS (heat inactivated), 5 mL of 100 mM MEM sodium pyruvate, 5 mL of 1 M HEPES buffer, 5 mL of penicillin/streptomycin solution, and 1.25 g of D-(+)-glucose added to 500 mL RPMI-1640 and filter sterilized. HeLa and NIH3T3 cells were maintained in Dulbecco's Modified Eagle Medium (DMEM; Gibco BRL, Grand Island, N.Y.) supplemented with 10% (v/v) FBS (GIBCO) and 1% (v/v) Antibiotic-Antimycotic (A/A; Gibco). […]"}, "[4]": {"experiment": "Rust removal experiments (1,10-phenanthroline assay)", "description": "Rust Removal Experiments. A rusted carbon steel tube was machine cut into U-shaped pieces (through the University at Buffalo School of Engineering and Applied Sciences Engineering Machine Shop) and each piece, after cleaning with acetone and rinsing with DI water, immersed in 10 mL Millipore water. Samples were then mixed with 250 μL of methanol or final extracts (about 0.2 mg of Ybt) derived from the larger-scale negative control or Ybt production cultures. Samples were then allowed to incubate at 30° C. with shaking for 2 hours.\nRust removal was quantified through a modification of the 1,10-phenanthroline assay to enable detection using a 96-well plate format. To each well, 40 μL of 0.3% (wt/vol) 1,10-phenanthroline, 40 μL of 1% (wt/vol) hydroxylamine hydrochloride, and 40 μL of 0.1 M ammonium acetate were mixed. […] Absorbance was measured using a microplate reader at a wavelength of 510 nm with concentration measurements determined from a calibration curve of Fe^3+ (Sigma-Aldrich).\nTo assess total rust removal, metal samples recovered after incubation were washed with water and immersed in a solution of 1% (wt/vol) oxalic acid for 30 minute to remove the remaining rust on the metal surface. Upon quantifying the amount of Fe^3+ removed using the 96-well plate method introduced above, percent rust removal was calculated using the following equation: […]"}, "[5]": {"experiment": "Gold-binding assay (LC-MS)", "conditions": "1 mM Au(III), crude extract 2-5 μM, 2 hours at 22° C.", "description": "Gold-binding Assay To test Ybt or analog gold binding capability, HAuCl4 was used to generate a solution of 1 mM Au(III) in de-ionized water. To this solution, crude extract of Ybt or analog (from samples prepared without FeCl3 addition) was added at a final concentration of 2-5 μM. After incubation for 2 hours at 22° C., the solution was analyzed by LC-MS."}, "[6]": {"experiment": "Zinc removal with Ybt-modified XAD beads (Zincon assay)", "conditions": "FIG. 14D", "description": "as §1, §2"}, "[7]": {"experiment": "Packed-bed removal from zinc and copper solutions", "conditions": "pH 6.5", "description": "Copper removal experiments: To test copper removal, 10 grams of each resin (XAD, Chelex 100, and Ybt-XAD) were packed into a 2.5×10 cm glass chromatography column (Bio-Rad). The column was equilibrated with 10 bed volumes of Millipore water before loading the metal solution. The metal solution (˜5 ppm zinc and ˜1 ppm copper; pH adjusted with dilute HCl or NaOH) was pumped (LMI Milton Roy dosing pump) into the column with a continuous flow rate of 1 L/hr. Samples were collected every 30 min. The percent copper or zinc removal was calculated using the following formula: [(Ci−Cf)/Ci]×100, where Ci is the initial copper (or zinc) concentration and Cf is the final concentration. Average selectivity was defined as the ratio of average copper removal (%) to the average zinc removal (%) over the course of the experiment."}}, "data": [{"smiles": "CC(C)(C1=N[C@@](C)(C(=O)O)CS1)[C@H](O)[C@@H]1CSC([C@H]2CSC(c3ccccc3O)=N2)N1", "note": "(stereo partly drawn) [Ybt, yersiniabactin]", "values": [{"measurement": "copper removal after repeated extractions", "setting": "[1]", "value": "~100", "unit": "%"}, {"measurement": "RBC hemolysis", "setting": "[2]", "value": "minimal concerns"}, {"measurement": "stability (degradation over time)", "setting": "[3]", "value": "stability"}, {"measurement": "immunogenicity via NO production from macrophage cells", "setting": "RAW264.7 cells", "value": "minimal concerns"}, {"measurement": "rust removed, of total rust", "setting": "[4]; about 0.2 mg of Ybt, 30° C., 2 hours", "value": "about 20%"}, {"measurement": "rust removed relative to the commercial control", "setting": "[4]; relative to commercial product Rust-Oleum", "value": "about 40%"}, {"measurement": "gold binding / complex formation", "setting": "[5]", "value": "lack of complexation"}, {"measurement": "zinc removal capability", "setting": "[6]", "value": "no discernible capability to remove zinc"}, {"measurement": "zinc binding in fixed bed", "setting": "[7]", "value": "not observed"}]}]}
